Measurements taken from paper PMC6937582, “Human leukocyte antigen (HLA) class II peptide flanking residues tune the immunogenicity of a human tumor-derived epitope” (The Journal of Biological Chemistry, 2019).
No end group written: not given here.

The sequences below were run against T1, HLA-DR1 (Homo sapiens, UniProt P01903+P01911, A100R/D57E/F55L/F60I/F76Y/I96L/L162R/M171V/P40L/Q125E/R42F/V115G/Y59C) (assay: HLA-DR1 competitive peptide-binding assay). Details: Fig. 2B; competition with 4.5 nM biotinylated CLIP99–117 marker peptide on refolded HLA-DR1-CLIP105–117, pH 5, overnight 37 °C, ELISA read-out; triplicate; four-parameter curve fit; read-out: HLA-DR1 binding IC50.
T1 construct: DRα*0101 (Uniprot: P01903, residues 26–207); HLA-DRβ1*0101 (Uniprot: P04229, residues 30–219); made in house
AGDGRLRLARLALVLLGWVS [5T4_11–30] was tested, and the IC50 was 535 nM. Work on FARRPPLAELAALNLSGSRL [5T4_111–130] yielded an IC50 of 176 nM.

Same assay, conditions: Fig. 5 B,D,F,H,J; truncated/substituted 5T4_111–130 peptides; competition with biotinylated CLIP99–117, pH 5, overnight 37 °C; representative of two experiments in triplicate; read-out: HLA-DR1 binding (IC50)
For FARRPPLAELAAANLSGSRL, the IC50 was 725 nM. Work on FARRPPLAELAALNLS yielded an IC50 of 360 nM. FARRPPLAELAALNLSGS showed an IC50 of 103 nM. With FARRPPLAELAALNLSGSRL [5T4_111–130] the IC50 was 136 nM. With FARRPPLAELAALNLSRSRL the IC50 was 255 nM. With LAELAALNL the IC50 was 5140 nM. PPLAELAALNLSGSRL gave an IC50 of 231 nM. Work on RRPPLAELAALNLSGSRL yielded an IC50 of 417 nM.

Same assay, conditions: HLA-DR1 binding (IC50)
For FARRPPLAELAALALSGSRL, the IC50 was 144 nM.
